pIC50: −log10 of the molar value.
Legend:
TNIK = biological target: T1, TNIK (Homo sapiens, UniProt Q9UKE5); test: TNIK enzymatic assay (radiometric 33P-ATP filter assay); type: biochemical; details: second table (TNIK, MAP4K4, Collagen Production Data); read-out: TNIK_IC50
T1 construct: purchased Eurofins (Kinase Profiler service protocol)
Description: The compounds were studied for function as TNIK inhibitors to generate the data of Table 1. […] (specific activity and concentration as required). The reaction is initiated by the addition of the Mg/ATP mix. After incubation for 40 minutes at room temperature, the reaction is stopped by the addition of phosphoric acid to a concentration of 0.5%.

MAP4K4 (h) = MAP4K4 (h) (Homo sapiens, UniProt O95819); test: MAP4K4 kinase assay (radiometric 33P-ATP filter assay); type: biochemical; details: read-out: MAP4K4_IC50
Sequence of MAP4K4 (h) (O95819 whole entry): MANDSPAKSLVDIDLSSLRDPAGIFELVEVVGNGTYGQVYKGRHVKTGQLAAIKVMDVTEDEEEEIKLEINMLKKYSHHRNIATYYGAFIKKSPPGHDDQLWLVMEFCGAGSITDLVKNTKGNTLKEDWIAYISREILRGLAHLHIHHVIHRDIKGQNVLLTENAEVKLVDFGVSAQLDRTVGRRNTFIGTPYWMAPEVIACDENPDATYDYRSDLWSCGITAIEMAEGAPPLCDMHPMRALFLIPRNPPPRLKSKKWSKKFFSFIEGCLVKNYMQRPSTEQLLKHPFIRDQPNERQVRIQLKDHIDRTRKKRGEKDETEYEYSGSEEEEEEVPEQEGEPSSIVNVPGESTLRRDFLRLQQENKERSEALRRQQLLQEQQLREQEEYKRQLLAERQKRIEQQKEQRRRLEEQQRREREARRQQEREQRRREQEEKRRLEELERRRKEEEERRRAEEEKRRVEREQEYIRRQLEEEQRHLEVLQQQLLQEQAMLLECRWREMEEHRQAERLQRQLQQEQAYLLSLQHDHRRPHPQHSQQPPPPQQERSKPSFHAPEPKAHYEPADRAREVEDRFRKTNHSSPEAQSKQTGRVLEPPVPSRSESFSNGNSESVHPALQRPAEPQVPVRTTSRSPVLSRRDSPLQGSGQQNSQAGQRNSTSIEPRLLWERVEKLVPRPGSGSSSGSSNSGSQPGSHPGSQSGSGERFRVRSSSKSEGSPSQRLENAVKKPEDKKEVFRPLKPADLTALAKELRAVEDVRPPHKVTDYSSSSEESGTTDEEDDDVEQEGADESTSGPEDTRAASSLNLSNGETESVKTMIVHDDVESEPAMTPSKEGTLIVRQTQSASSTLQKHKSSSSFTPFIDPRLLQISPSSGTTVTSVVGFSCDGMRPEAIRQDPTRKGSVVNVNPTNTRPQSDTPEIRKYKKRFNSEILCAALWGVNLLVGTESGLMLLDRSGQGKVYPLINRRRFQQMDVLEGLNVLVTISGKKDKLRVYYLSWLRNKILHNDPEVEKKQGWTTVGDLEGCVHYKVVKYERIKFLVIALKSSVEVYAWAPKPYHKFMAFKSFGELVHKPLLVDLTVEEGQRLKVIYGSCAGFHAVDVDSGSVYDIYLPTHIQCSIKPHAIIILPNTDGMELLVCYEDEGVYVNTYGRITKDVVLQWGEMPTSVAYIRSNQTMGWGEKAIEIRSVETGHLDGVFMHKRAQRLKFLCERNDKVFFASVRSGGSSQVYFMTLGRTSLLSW
Description: (specific activity and concentration as required). The reaction is initiated by the addition of the Mg/ATP mix. After incubation for 40 minutes at room temperature, the reaction is stopped by the addition of phosphoric acid to a concentration of 0.5%.

[1] = tested on: Human hepatic stellate cell LX-2; test: LX-2 fibrosis assay, collagen production (Western blot); type: cell-based; details: LX-2 cells, stimulated with 4 ng/mL TGF-b for 48 hours
Description: Human hepatic stellate cell LX-2 were grown in DMEM (Invitrogen, 11960) supplied with 1% MEM Non-Essential Amino Acids (Invitrogen, 11140-050), 2% fetal bovine serum (Hyclone, SV30087.03), Penicillin (100 U/mL)-streptomycin (100 μg/mL) (Millipore, TMS-AB2-C) and 2 mM L-Glutamine (Invitrogen, 25030-001). After the cells grew in 12-well plates for 24 hours, the cell culture medium was changed to the same as above except using 0.4% fetal bovine serum. After 20 hour growth in the reduced serum medium, the cells were treated with indicated doses of compounds for 30 minutes. Subsequently, the cells were stimulated with 4 ng/mL TGF-b (R&D Systems, 240-B-002) for 48 hours. The cells were rinsed twice with DPBS before being harvested with 100 μL RIPA buffer (Sigma, R0278) supplemented with protease inhibitor cocktail (Roche, 04693132001) at 4° C. The total protein in each sample was quantified using BCA Protein Assay Kit (Pierce™, 23227) and equal amount of total protein of each sample was subject to Western blot analysis. Antibodies used were mouse anti-α-Actin (SPM332) ([…]), mouse anti-CTGF (E5) (sc-365970), and mouse anti-collagen α1 (3G3) (sc-293182), from Santa Cruz Biotechnologies; and mouse anti-GAPDH (6C5) (EMD Millipore, MAB374).

T1 sequence (Q9UKE5 whole entry): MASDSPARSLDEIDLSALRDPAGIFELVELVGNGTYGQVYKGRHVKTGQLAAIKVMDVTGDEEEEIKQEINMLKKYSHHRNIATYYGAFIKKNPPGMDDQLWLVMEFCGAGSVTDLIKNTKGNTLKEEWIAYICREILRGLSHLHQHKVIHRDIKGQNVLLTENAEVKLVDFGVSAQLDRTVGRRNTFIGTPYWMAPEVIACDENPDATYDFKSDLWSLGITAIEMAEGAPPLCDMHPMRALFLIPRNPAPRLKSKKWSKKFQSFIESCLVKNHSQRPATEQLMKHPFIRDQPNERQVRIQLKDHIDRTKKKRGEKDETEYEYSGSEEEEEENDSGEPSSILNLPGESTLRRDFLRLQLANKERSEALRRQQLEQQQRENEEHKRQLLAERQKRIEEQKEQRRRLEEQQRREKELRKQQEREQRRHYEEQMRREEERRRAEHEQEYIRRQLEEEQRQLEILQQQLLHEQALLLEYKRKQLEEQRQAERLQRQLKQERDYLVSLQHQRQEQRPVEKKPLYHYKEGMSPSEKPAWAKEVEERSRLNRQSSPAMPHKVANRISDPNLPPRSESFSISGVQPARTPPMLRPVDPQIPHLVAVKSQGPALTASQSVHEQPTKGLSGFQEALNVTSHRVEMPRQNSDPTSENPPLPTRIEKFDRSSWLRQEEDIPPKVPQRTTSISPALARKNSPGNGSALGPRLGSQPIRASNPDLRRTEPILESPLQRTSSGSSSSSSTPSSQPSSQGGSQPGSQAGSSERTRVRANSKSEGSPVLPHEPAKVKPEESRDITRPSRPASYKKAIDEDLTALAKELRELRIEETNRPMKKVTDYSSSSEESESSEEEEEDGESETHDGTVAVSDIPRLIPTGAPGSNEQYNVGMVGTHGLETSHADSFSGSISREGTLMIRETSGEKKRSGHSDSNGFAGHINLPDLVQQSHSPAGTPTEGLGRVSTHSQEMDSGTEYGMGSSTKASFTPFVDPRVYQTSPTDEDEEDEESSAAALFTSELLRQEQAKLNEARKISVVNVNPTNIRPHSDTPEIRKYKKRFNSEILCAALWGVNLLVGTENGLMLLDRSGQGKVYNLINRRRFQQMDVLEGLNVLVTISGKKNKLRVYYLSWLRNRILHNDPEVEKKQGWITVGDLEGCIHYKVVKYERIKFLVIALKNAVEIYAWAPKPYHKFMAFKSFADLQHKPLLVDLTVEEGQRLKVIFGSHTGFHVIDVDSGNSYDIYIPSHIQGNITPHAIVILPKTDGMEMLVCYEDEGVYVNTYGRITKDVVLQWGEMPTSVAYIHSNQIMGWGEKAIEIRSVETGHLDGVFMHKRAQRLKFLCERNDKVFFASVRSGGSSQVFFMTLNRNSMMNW

SMILES | pIC50 (TNIK) | pIC50 (MAP4K4 (h)) | EC50 ([1]; LX-2, 48 h) | EC50 [1]
O=C(Nc1ccncc1F)c1ccc(-c2c(-c3ccc(F)cc3)ncn2[C@@H]2COC[C@H]2F)o1 (racemic) [Compound A-54, rac-5-(4-(4-fluorophenyl)-1-((3R,4S)-4-fluorotetrahydrofuran-3-yl)-1H-imidazol-5-yl)-N-(3-fluoropyridin-4-yl)furan-2-carboxamide] | 7.22 | 7.44 | 0.983 µM | 
CN1CCN(c2ccc(NC(=O)c3ccc(-c4c(-c5ccc(F)cc5)ncn4C4CCCC4)o3)c(F)c2)CC1 [Compound A-52, 4-(4-(5-(1-cyclopentyl-4-(4-fluorophenyl)-1H-imidazol-5-yl)furan-2-carboxamido)-3-fluorophenyl)-1-methylpiperazin-1-ium] |  |  |  | 0.042 µM
O=C(Nc1ccncc1F)c1ccc(-c2c(-c3ccc(F)cc3)ncn2C2COCC2F)o1 (centres unmarked) [Compound A-53, 5-(4-(4-fluorophenyl)-1-(4-fluorotetrahydrofuran-3-yl)-1H-imidazol-5-yl)-N-(3-fluoropyridin-4-yl)furan-2-carboxamide] |  |  | 1.98 µM | 

— patent publication US12410156B2, “Kinase inhibitors” (Insilico Medicine IP Limited, priority 2019, dated 2025)
